How the values were obtained:
Type in all cases: cell-based
[1] = system: GPC3-expressing hepatoma cells; assay: Cell-killing effect (CCK-8) of gemcitabine-bound combi aptamers; details: FIG. 23 and FIG. 24
Description: In detail, Huh-7 cells (ATCC, Rockville, MD, USA) were seeded in a 96-well plate at a density of 1×10^4/mL, and cultured using a DMEM (Gibco, Grand Island, NY, USA) medium containing 10% FBS (Gibco, Grand Island, NY, USA) and 1% antibiotics (penicillin/streptomycin) under conditions of 5% CO2 and 37° C. Next day, the aptamer stock (100 μM) was mixed with 5×SB18 buffer to prepare the stock at a concentration of 80 μM, and heated at 95° C. for 5 min, and then cooled at room temperature for 15 min or more. The medium was removed from the cultured cells, and 100 μL of a serum-free medium was added thereto, and cultured under conditions of 37° C. and 5% CO2 for 1 hr. The serum-free medium was removed, and then the cells were washed with 100 μL of 1×PBS. 100 μL of KRPH buffer was added, and cultured under conditions of 37° C. and 5% CO2 for 1 hr. The aptamer was diluted with KRPH buffer to 2-fold of the desired concentration, and added to a 96-well plate at 1× concentration, and cultured under conditions of 37° C. and 5% CO2 for 4 hr. After treatment with the aptamer, the KRPH buffer was removed, and then 100 μL of culture medium was added and cultured under conditions of 37° C. and 5% CO2 for […]. 6 days later, 10 μL of a kit solution of CCK-8 (Cell Counting Kit-8) was added to each well, and then cultured under conditions of 37° C. and 5% CO2 for 3 hr. Cell death levels were examined at […] using a microplate reader.

[2] = system: squamous cell carcinoma cells (A431); assay: Cell cycle analysis (propidium iodide, FACS); details: 4 hr treatment, FIG. 27
Description: (§1) To analyze the effects of combi 4 and combi 5 bound with three or five gemcitabines on the cell cycle of hepatoma cells, cell cycle analysis was performed. In detail, Hep3B, HepG2, and A431 cells were seeded in a 6-well plate at a density of 1×10^6/ml, and cultured using a DMEM medium containing 10% FBS and 1% antibiotics (penicillin/streptomycin) under conditions of 5% CO2 and 37° C., respectively. Next day, 100 μM of the modified aptamer stock was mixed with 5×SB18 buffer to prepare the aptamer at a concentration of 80 μM, and heated at 95° C. for 5 min, and then cooled at room temperature for 15 min or more. The medium was removed from the cultured cells, and replaced by a serum-free medium, and cultured under conditions of 37° C. and 5% CO2 for 1 hr. The serum-free medium was removed, and then the cells were washed with 2 ml of 1×PBS. 2 ml of KRPH buffer was added, and cultured under conditions of 37° C. and 5% CO2 for 1 hr. The aptamer was added, and cultured under conditions of 37° C. and 5% CO2 for 4 hr. The KRPH buffer was removed, and 2 ml of 1×PBS was added thereto to perform washing, and then PBS was removed. 2 ml of 1×PBS was added, and cells were scraped using a scraper, and collected in FACs tubes, followed by centrifugation at 4° C. and 2000 rpm for 4 minutes. 1/500-fold diluted RNAase A and propidium iodide diluted with PBS at a concentration of 50 μg/ml were added to the FACs tubes at a volume of 500 μL, followed by pipetting. Incubation was performed at room temperature for 30 min while blocking the light, and then cell cycle was measured.

[3] = system: hepatoma cells (Hep3B, HepG2); assay: Cell cycle analysis (propidium iodide, FACS); details: 4 hr treatment, FIGS. 25 and 26
Description: as §1

HepG2 = assay: Cellular internalization of gemcitabine-bound chemically optimized aptamers; details: analysis in HepG2 and A431 cells, FIGS. 20 to 22
Description: [The source words this procedure for another cell line and reports this cell line under the same test.] 5 aptamer libraries prepared by truncating the 12-10 aptamer at various lengths [12-12 (35-mer), 12-11 (29-mer), 12-13 (24-mer), 12-14 (23-mer), and 12-15 (18-mer)] were subjected to cellular internalization analysis. In detail, a 6-well plate was prepared, and a round cover glass was placed in the 6-well plate. Huh-7 cells were cultured in the 6-well plate according to the method of Example 1-3. 5 μM of the aptamer stock was mixed with 5×SB18 buffer to prepare the aptamer at a concentration of 4 μM, and heated at 95° C. for 5 min, and then cooled at room temperature for 15 min or more. The next day, the medium was removed from the cultured cells, and a serum-free medium was added thereto, and cultured under conditions of 37° C. and 5% CO2 for 1 hr. The serum-free medium was removed, and then the cells were washed with 2 mL of 1×PBS. KRPH buffer was added, and cultured under conditions of 37° C. and 5% CO2 for 1 hr. 4 μM aptamer was diluted to 25 nM, and then cultured under conditions of 37° C. and 5% CO2 for 1 hr or 4 hr. Washing was repeated three times with 2 mL of 1×PBS. Washing was performed in a shaker at room temperature for 10 min while blocking the light. Thereafter, the cells were fixed by treatment with 4% paraformaldehyde at 4° C. for 10 min. Washing was repeated three times with 2 mL of 1×PBS. […]

Huh 7 cells = assay: Cell binding analysis of Cy5-labeled aptamers (FACS); details: three vs five gemcitabines bound, method of Example 2-1, FIG. 19
Description: (§2) The 12-10 aptamer and 5 aptamer libraries prepared by truncating the 12-10 aptamer at various lengths [12-10 (40-mer), 12-12 (35-mer), 12-11 (29-mer), 12-13 (24-mer), 12-14 (23-mer), 12-15 (18-mer)] were subjected to cell binding analysis. Each aptamer sequence was labeled with Cy5 at the 5′ end thereof according to the method of Example 1-1. Huh 7 cells (ATCC, Rockville, MD, USA) were seeded at a density of 2×10^6/mL in a 100 mm^2 culture plate, and cultured using a DMEM medium (Gibco, Grand Island, NY, USA) containing 10% FBS (Gibco, Grand Island, NY, USA) and 1% antibiotics (penicillin/streptomycin) under conditions of 5% CO2 and 37° C. 5 μM of the aptamer stock was mixed with 5×SB18 buffer to prepare the aptamer at a concentration of 4 μM, and heated at 95° C. for 5 min, and then cooled at room temperature for 15 min or more. 4 μM of the aptamer was diluted with KRPH buffer (20 mM HEPES, 5 mM KH2PO4, 1 mM MgSO4, 1 mM CaCl2, 136 mM NaCl, 4.7 mM KCl, pH 7.4) at a concentration of 25 nM. The culture medium was removed from the cultured cells, and 4 mL of phosphate-buffered saline (PBS) was added thereto, followed by washing, and then 4 mL of PBS was removed. 4 mL of cold PBS or warm PBS was added, and cells were scraped using a scraper, and collected in tubes, followed by pipetting. The cells were divided and added to fluorescence-activated cell sorting (FAC) tubes according to the number of samples, followed by centrifugation at 4° C. and 2000 rpm for 4 min. After removing the supernatant, each 500 μL of 25 nM aptamer and control (31-08 (40-mer) aptamer) were added to 15 mL of KRPH buffer, followed by pipetting. The tube was covered with foil to block the light, followed by incubation at 4° C. for 30 min. After incubation, centrifugation was performed at 4° C. and 2000 rpm for 4 min, and the supernatant was removed. 2 mL of cold 1×PBS was added, washed, centrifuged at 4° C. and 2000 rpm for 4 min, and the supernatant was removed. This process was repeated three times. […] Cy5 was measured at […]. […]

Hep3B = assay: Cellular internalization of chemically optimized aptamers (FIG. 17A); details: combi 1 to combi 5, FIG. 17A
HepG2 cell = assay: Cell binding analysis of chemically optimized aptamers; details: combi 1 to combi 5, FIG. 16
Description: [The source words this procedure for another cell line and reports this cell line under the same test.] as §2, with “4 mL of cold PBS or warm PBS was added, and cells were scraped using a scraper, and collected in tubes, followed by pipetting.” left out, “min.” for “min. After removing the supernatant, each 500 μL of 25 nM aptamer and control (31-08 (40-mer) aptamer) were added to 15 mL of KRPH buffer, followed by pipetting. The tube was covered with foil to block the light, followed by incubation at 4° C. for 30 min. After incubation, centrifugation was performed at 4° C. and 2000 rpm for 4 min, and the supernatant was removed. 2 mL of cold 1×PBS was added, washed, centrifuged at 4° C. and 2000 rpm for 4 min, and the supernatant was removed. This process was repeated three times.”

Row | Substance | concentration from which a cell-killing effect is shown [1] [nM] | cell cycle arrest [2] | cell cycle arrest [3] | cellular internalization (HepG2) | cell binding ability (Huh 7 cells) | Hep3B cellular internalization (Hep3B) | HepG2 cell binding (HepG2 cell)
1 | Combi 4 G(3) (DNA GNGAANGCGNNGAANNANGYSSSNNCAGNCANCAC; gemcitabines, 2'-OMe, 2'-F, BzdU, 3' idT; Combi 4 G(3); (1)..(1) G is 2-O-Methoxy-DNA.; (2)..(2) n is BzdU.; (3)..(3) G is 2-O-Methoxy-DNA.; (4)..(4) A is 2-Fluorine-DNA.; (5)..(5) A is 2-Fluorine-DNA.; (6)..(6) n is BzdU.; (10)..(10) n is BzdU.; (11)..(11) n is BzdU.; (12)..(12) G is 2-Fluorine-DNA.; (13)..(13) A is 2-Fluorine-DNA.; (14)..(14) A is 2-Fluorine-DNA.; (15)..(15) n is BzdU.; (16)..(16) n is BzdU.; (17)..(17) A is 2-Fluorine-) | 100 | no cell cycle arrest | arrested hepatoma cells at the G1/S phase | excellent cellular internalization | excellent cell binding ability |  | 
2 | Combi 5: SEQ ID NO: 14, chemically optimized 12-12 aptamer (G_{Me}nG_{Me}A_{F}A_{F}nGCGnnG_{F}A_{F}A_{Me}nnA_{Me}nWYC_{F}C_{F}C_{F}nnCAG_{Me}nCAnC_{F}A_{Me}C_{F}; 2'-F and 2'-OMe units, modified bases n, W, Y undefined, 3' idT, as printed in the source, key not given here) |  |  |  |  |  | highest | most similar to that of 12-12
